Measured values: patent US10598672B2, “Methods and compositions for diagnosing and treating loss and/or distortion of taste or smell” (Cyrano Therapeutics, Inc., priority 2014, dated 2020)

How the values were obtained:
[1] = system: patients with hyposmia and hypogeusia; assay: Open-label pilot study oral vs intranasal theophylline: subjective smell and taste function by questionnaire (0-100); type: in vivo, human
Text: We performed an open-label pilot study in patients with hyposmia and hypogeusia under the following 3 conditions: (1) before treatment, (2) after oral theophylline treatment, and (3) after intranasal theophylline treatment. Under each condition, we performed subjective evaluations of taste or smell functions, quantitative measurements of taste (gustometry) and smell (olfactometry), and measurements of serum theophylline level and body weight.
Subjective changes in smell and taste function under each study condition were measured by questionnaire before measurements of smell or taste function. Responses were graded on a scale from 0 to 100, with 0 reflecting no subjective response in overall sensory function; 100, return to normal sensory function; and values between 0 and 100 intermediate responses. Overall sensory function was defined as the ability to smell all odors and identify all tastants, although response intensity varied.
The 10 patients in this intranasal pilot study entered into the previous oral theophylline study according to a protocol approved by the institutional review board of the Georgetown University Medical Center. In this prior trial, oral theophylline was administered daily in 2 divided doses (at breakfast and lunch) of 200, 400, 600, or 800 mg for 2 to 12 months of treatment. Treatment was divided into 2- to 4-month periods, at which time patients returned to The Clinic for measurements of subjective sensory responses, olfactometry, gustometry, serum theophylline level, and body weight. […] In the 10 patients selected for the intranasal pilot study, oral theophylline treatment was discontinued 3 weeks to 4 months before initiation of the intranasal drug trial. At that time, the mean (SEM) serum theophylline level was unmeasurable in any patient (0 [0] mg/L).
A pilot study of intranasal theophylline treatment was then initiated among these 10 patients. This trial was an investigator initiated phase 1, open-label, single-source, controlled pilot study. Intranasal drug therapy reflected a compassionate trial of a potentially more useful therapeutic method to improve hyposmia (and hypogeusia) than oral theophylline. Before the intranasal trial, risks and benefits were explained and the patients signed an informed consent.
The intranasal administration device was a calibrated 1 mL syringe fitted with a nozzle that fit comfortably into the anterior naris (Wolfe Tory Medical, Inc.) and loaded under sterile conditions with 20 μg of theophylline methylpropyl paraben in a 0.4-mL saline solution (Foundation Care). Patients were instructed to direct the spray superiorly into the nasal cavity but not posteriorly into the nasopharynx. This technique was practiced before study initiation with sterile saline.
Each patient delivered the theophylline dose in each naris once daily throughout the study. Patients underwent evaluation 1, 2, and 4 weeks during drug use with the same measurements used for the oral study.
Values for the oral trial were taken from the last measurements made before discontinuation of oral drug treatment and before initiation of the intranasal trial. This period varied from 2 to 12 months after oral treatment initiation and reflected the maximal improvement in sensory function each patient experienced. Values for the intranasal pilot study were taken from measurements obtained after completion of 4 weeks of intranasal treatment.
The mean and standard error of the mean for all values obtained at each study condition were compared. Differences were considered significant if P<0.05 by the unpaired t test. Paired comparison tests were also used with differences considered significant if P<0.05 by the t test.

hyposmic patients = assay: Subjective responses in smell, flavor and taste function (1-100 scale) after oral theophylline; type: in vivo, human
Text: The term “subjective improvement” as used herein and its grammatical equivalents can refer to measurements of improvement in perception for all external odors based upon a scale of 1-100 with 100 indicating complete recovery of normal smell function with responses from 1-100 scaled appropriately. […] Subjective improvement in taste function can also be measured with changes in taste for salt, sweet, sour and bitter tastants measured on the same 1-100 scale with 100 indicating return to normal for each of the four tastants considered and responses <100 scaled consistently less.
Thirty-one of the hyposmic patients were treated with oral theophylline with a dose range of 200-800 mg taken over a period of 2-10 months. These patients were 18 men, aged 12-78 y, 62+5 y, with six with PIHH, 10 with allergic rhinitis, one with congenital smell loss and one post anesthesia and 13 women, aged 12-67 y, 42±6 y, with four with PIHH, one with allergic rhinitis and eight with congenital smell loss. Improvement in smell function consisted of improvement in both subjective responses to oral theophylline and in olfactometry. Subjective improvement in smell function consisted of measurements of improvement in perception for all external odors based upon a scale of 1-100 with 100 indicating complete recovery of normal smell function with responses from 1-100 scaled appropriately. […] Subjective improvement in taste function was also measured with changes in taste for salt, sweet, sour and bitter tastants measured on the same 1-100 scale with 100 indicating return to normal for each of the four tastants considered and responses <100 scaled consistently less. Improvement by olfactometry was indicated by decreased DT or RT (increased sensitivity), increased ME (increased sensitivity) and changes in H consistent with decreased distortions.

[2] = after discontinuation of intranasal treatment
[3] = 31 patients, oral theophylline, listed as ORAL THEOPHYLLINE
[4] = 31 patients, oral theophylline, listed as oral theophylline
[5] = oral theophylline, scale 1-100, listed as ORAL THEOPHYLLINE
[6] = oral theophylline, scale 1-100, listed as oral theophylline

Cn1c(=O)c2[nH]cnc2n(C)c1=O [theophylline]
patients reporting some persistence of improvement after 10 weeks [1, 2]: Four | patients with loss of smell and taste function after 6 weeks [1, 2]: 2 patients | patients with loss of smell and taste function within 1 week of discontinuation [1, 2]: 2 patients | earliest improvement measured after starting treatment ([1]; intranasal treatment): 1 week | improvement measured for taste or smell functions compared with oral treatment ([1]; intranasal, 4 weeks, subjective): 2 fold | patients who reported no improvement ([1]; of 10 patients, intranasal treatment): 2 patients | patients with improved taste or smell acuity / overall improvement in taste or smell functions ([1]; of 10 patients, intranasal, 20 μg in each naris once daily, 4 weeks): 8 patients | patients who reported no improvement ([1]; of 10 patients, oral treatment): 4 patients | patients with improved taste or smell acuity / overall increased taste or smell function ([1]; of 10 patients, oral, 200 to 800 mg/d for 2 to 12 months): 6 patients | earliest improvement of hyposmia measured after ([1]; oral treatment): 2 months | FLAVOR FUNCTION IMPROVED, number of patients (hyposmic patients; 31 patients, oral theophylline): 19 | FLAVOR FUNCTION NOT IMPROVED, % of patients studied (hyposmic patients; 31 patients, oral theophylline): [39] % | FLAVOR FUNCTION NOT IMPROVED, number of patients (hyposmic patients; 31 patients, oral theophylline): 12 | SMELL FUNCTION NOT IMPROVED, % of patients studied (hyposmic patients; 31 patients, oral theophylline): [39] % | SMELL FUNCTION NOT IMPROVED, number of patients (hyposmic patients; 31 patients, oral theophylline): 12 | TASTE FUNCTION IMPROVED, number of patients (hyposmic patients; 31 patients, oral theophylline): 20 | TASTE FUNCTION NOT IMPROVED, % of patients studied (hyposmic patients; 31 patients, oral theophylline): [36] % | TASTE FUNCTION NOT IMPROVED, number of patients (hyposmic patients; 31 patients, oral theophylline): 11 | SMELL FUNCTION IMPROVED, number of patients (hyposmic patients; 31 patients, oral theophylline 200-800 mg for 2-10 months): 19 | SMELL FUNCTION IMPROVED, % of patients studied (hyposmic patients; 31 patients, oral theophylline 200-800 mg for 2-10 months, listed as ORAL THEOPHYLLINE): [61] % | SMELL FUNCTION IMPROVED, % of patients studied (hyposmic patients; 31 patients, oral theophylline 200-800 mg for 2-10 months, listed as oral theophylline): 61% | FLAVOR FUNCTION IMPROVED, % of patients studied (hyposmic patients; [3]): [61] % | TASTE FUNCTION IMPROVED, % of patients studied (hyposmic patients; [3]): [64]^d % | FLAVOR FUNCTION IMPROVED, % of patients studied (hyposmic patients; [4]): 61% | TASTE FUNCTION IMPROVED, % of patients studied (hyposmic patients; [4]): 64% | SMELL FUNCTION IMPROVED, RESPONSE RANGE (hyposmic patients; improved patients (19), scale 1-100): 2-100% | SMELL FUNCTION IMPROVED, RESPONSE Mean ± SEM (hyposmic patients; improved patients (19), scale 1-100, listed as ORAL THEOPHYLLINE): 34 ± 6% | SMELL FUNCTION IMPROVED, RESPONSE Mean ± SEM (hyposmic patients; improved patients (19), scale 1-100, listed as oral theophylline): 34±6% | FLAVOR FUNCTION NOT IMPROVED, RESPONSE Mean ± SEM (hyposmic patients; oral theophylline): 0 | FLAVOR FUNCTION NOT IMPROVED, RESPONSE RANGE (hyposmic patients; oral theophylline): 0% | SMELL FUNCTION IMPROVED MEN, number of patients (hyposmic patients; oral theophylline): 11 | SMELL FUNCTION NOT IMPROVED, RESPONSE Mean ± SEM (hyposmic patients; oral theophylline): 0 | SMELL FUNCTION NOT IMPROVED, RESPONSE RANGE (hyposmic patients; oral theophylline): 0% | TASTE FUNCTION NOT IMPROVED, RESPONSE Mean ± SEM (hyposmic patients; oral theophylline): 0 | TASTE FUNCTION NOT IMPROVED, RESPONSE RANGE (hyposmic patients; oral theophylline): 0% | FLAVOR FUNCTION IMPROVED, RESPONSE Mean ± SEM (hyposmic patients; oral theophylline, scale 1-100): 43 ± 8 | FLAVOR FUNCTION IMPROVED, RESPONSE RANGE (hyposmic patients; oral theophylline, scale 1-100): 1-100% | SMELL FUNCTION IMPROVED MEN, RESPONSE RANGE (hyposmic patients; oral theophylline, scale 1-100): 3-95% | SMELL FUNCTION IMPROVED WOMEN, RESPONSE RANGE (hyposmic patients; oral theophylline, scale 1-100): 2-100% | TASTE FUNCTION IMPROVED, RESPONSE Mean ± SEM (hyposmic patients; oral theophylline, scale 1-100): 47 ± 8 | TASTE FUNCTION IMPROVED, RESPONSE RANGE (hyposmic patients; oral theophylline, scale 1-100): 3-100% | SMELL FUNCTION IMPROVED MEN, RESPONSE Mean ± SEM (hyposmic patients; [5]): 27 ± 9% | SMELL FUNCTION IMPROVED WOMEN, RESPONSE Mean ± SEM (hyposmic patients; [5]): 43 ± 17% | SMELL FUNCTION IMPROVED MEN, RESPONSE Mean ± SEM (hyposmic patients; [6]): 27±9% | SMELL FUNCTION IMPROVED WOMEN, RESPONSE Mean ± SEM (hyposmic patients; [6]): 43±17% | SMELL FUNCTION IMPROVED WOMEN, number of patients (hyposmic patients; oral theophylline, listed as ORAL THEOPHYLLINE): 8 | SMELL FUNCTION IMPROVED WOMEN, number of patients (hyposmic patients; oral theophylline, listed as oral theophylline): eight
